The source of these data is US7723075B2, “Methods of screening for TRPM5 modulators” (The Queens's Medical Center, priority 2003, dated 2010).

Test [1] addresses T1, TRPM5 (Homo sapiens, UniProt Q9NZQ8).
T1 construct: Human TRPM5 cDNA containing the complete ORF of the long splice version; expressed in transfected cells
T1 sequence (Q9NZQ8 1-1165): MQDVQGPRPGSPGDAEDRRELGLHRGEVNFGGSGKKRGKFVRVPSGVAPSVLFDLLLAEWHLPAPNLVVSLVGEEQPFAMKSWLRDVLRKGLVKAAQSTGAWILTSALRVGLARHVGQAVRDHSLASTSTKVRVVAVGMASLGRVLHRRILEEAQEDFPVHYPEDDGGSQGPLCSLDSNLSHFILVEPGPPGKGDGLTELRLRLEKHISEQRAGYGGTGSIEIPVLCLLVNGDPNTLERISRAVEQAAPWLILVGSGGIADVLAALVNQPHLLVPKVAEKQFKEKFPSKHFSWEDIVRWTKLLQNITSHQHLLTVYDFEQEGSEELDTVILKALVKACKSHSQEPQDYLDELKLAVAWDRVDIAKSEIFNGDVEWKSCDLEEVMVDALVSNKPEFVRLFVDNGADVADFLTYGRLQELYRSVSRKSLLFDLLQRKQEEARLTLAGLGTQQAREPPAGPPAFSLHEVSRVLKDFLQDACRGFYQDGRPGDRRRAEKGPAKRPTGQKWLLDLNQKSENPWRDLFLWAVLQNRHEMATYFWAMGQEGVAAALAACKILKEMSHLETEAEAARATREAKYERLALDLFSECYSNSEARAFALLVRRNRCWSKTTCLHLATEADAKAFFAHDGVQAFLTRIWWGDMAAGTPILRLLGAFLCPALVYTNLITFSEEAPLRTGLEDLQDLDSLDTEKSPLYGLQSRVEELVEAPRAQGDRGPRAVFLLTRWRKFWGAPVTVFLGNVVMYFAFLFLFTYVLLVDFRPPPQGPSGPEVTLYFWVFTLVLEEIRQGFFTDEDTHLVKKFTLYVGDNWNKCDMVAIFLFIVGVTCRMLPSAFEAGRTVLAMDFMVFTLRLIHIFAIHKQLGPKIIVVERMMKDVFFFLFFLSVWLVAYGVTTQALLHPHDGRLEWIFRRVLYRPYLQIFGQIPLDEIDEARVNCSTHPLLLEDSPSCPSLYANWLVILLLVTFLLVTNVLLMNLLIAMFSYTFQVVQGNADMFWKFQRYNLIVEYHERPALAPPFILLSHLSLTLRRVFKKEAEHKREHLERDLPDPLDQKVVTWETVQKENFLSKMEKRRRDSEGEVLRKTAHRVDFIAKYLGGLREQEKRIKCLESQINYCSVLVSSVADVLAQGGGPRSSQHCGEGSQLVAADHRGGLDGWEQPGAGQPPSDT
Nature of the test: Combined patch-clamp and fura-2 recordings of TRPM5 currents after Ca2+ release, [Ca2+]i not buffered. In kind it is cell-based. From the text:
(§1) Cells grown on glass coverslips were transferred to the recording chamber and kept in a standard modified Ringer's solution of the following composition (in mM): NaCl 140, KCl 2.8, CaC12 1, MgC12 2, glucose 10, Hepes.NaOH 10, pH 7.2, with osmolarity typically ranging from 298-308 mOsm. Intracellular pipette-filling solutions contained (in MM): K-glutamate 120, NaCl 8, MgC12 1, K-BAPTA 10, HEPES.CsOH, pH 7.2 adjusted with KOH. In order to adjust free [Ca^2+]i, to the desired concentration appropriate amounts of CaC12 were added as calculated with WebMaxC v2.1 (available through Stanford University). In the case of fura-2 measurements intracellular K-BAPTA was replaced by 200 μM fura-2. Fura-2 is a calcium indicator (Handbook of Fluorescent Probes and Research Chemicals, 9th ed. Molecular Probes). […]
(§2) The cytosolic calcium concentration was monitored at a rate of 5 Hz with a photomultiplier-based system using a monochromatic light source tuned to excite fura-2 fluorescence at 360 and 390 nm for 20 ms each (TILL Photonics, Munich, Germany). Emission was detected at 450-550 run with a photomultiplier, whose analog signals were sampled and processed by X-Chart software (HEKA, Lambrecht, Germany). Fluorescence ratios were translated into free intracellular calcium concentration based on calibration parameters derived from patch-clamp experiments with calibrated calcium concentrations. […]

In test [2] the target is TRPM4 (Homo sapiens, UniProt Q8TD43). Nature of the test: Dose-dependence of TRPM4 currents evoked by intracellular [Ca2+]i. Format: cell-based.
The subject of test [3] is endogenous TRPM5-like currents in INS-1 cells. Nature of the test: Whole-cell currents in INS-1 beta cells perfused with defined [Ca2+]i. Format: cell-based, rat. As for the experimental part: (§3) Patch-clamp experiments were performed in the tight-seal whole-cell configuration at 21-25° C. High-resolution current recordings were acquired by a computer-based patch-clamp amplifier system (EPC-9, HEKA, Lambrecht, Germany). Patch pipettes had resistances between 2-4 MS2 after filling with the standard intracellular solution. Immediately following establishment of the whole-cell configuration, voltage ramps of 50 ms duration spanning the voltage range of −100 to +100 mV were delivered from a holding potential of 0 mV at a rate of 0.5 Hz over a period of 300 to 600 seconds. All voltages were corrected for a liquid junction potential of 10 mV between external and internal solutions when using glutamate as intracellular anion. Currents were filtered at 2.9 kHz and digitized at […] intervals. Capacitive currents and series resistance were determined and corrected before each voltage ramp using the automatic capacitance compensation of the EPC-9. The low-resolution temporal development of membrane currents was assessed by extracting the current amplitude at −80 and +80 mV from individual ramp current records. Where applicable, statistical errors of averaged data are given as means±S.E.M. with n determinations and statistical significance was assessed by Student's t-test. For single channel measurements inside-out patches were pulled into a modified standard external solution that contained no Ca^2+ and had 1 mM Na-EDTA. To record single channels a ramp protocol of 4.5 s from −100 mV to +100 mV and digitized at […] was given with no wait time in between ramps. Ramps that had no channel activity during Ca^2+ application were used for leak correction and subtracted form all ramps acquired. Data collection was at 2.9 kHz filter setting and digitally filtered at 50 Hz for display purposes.
TRPM5 is found in another beta cell line, INS-1 (FIG. 5B). The INS-1 line was used to assess the electrophysiological features of TRPM5 in a native cellular context. Since the pancreatic beta-cell line INS-1 expressed TRPM5, the native TRPM5 currents in these cells was studied using the same experimental protocols that activated TRPM5 in the heterologous HEK-293 expression system (Examples 1-3). FIG. 5C illustrates that perfusing INS-1 cells with an intracellular solution that contained elevated levels of Ca^2+ (800 nM) induced a transient current, whose current-voltage relationship (FIG. 5D) was outwardly rectifying and closely resembled the current-voltage characteristics obtained for TRPM5 in the transfected HEK-293 cells. […]

Test [4] deals with T2, TRPM5 single channels (Homo sapiens, UniProt Q9NZQ8).
T2 construct: Human TRPM5 cDNA containing the complete ORF of the long splice version; expressed in transfected cells
T2 sequence (Q9NZQ8 1-1165): T1 sequence (Q9NZQ8 1-1165)
Briefly: Single-channel recordings in inside-out patches from HEK-293 cells stably expressing TRPM5. Format: biochemical. The note with it: cytosolic side exposed to 300 nM Ca2+, n=5. From the text:
FIG. 4A depicts studies in which the inside-out patches were pulled from HEK-293 cells stably expressing TRPM5 channels. To record single channels a ramp protocol of 4.5 s from −100 mV to +100 mV was given with no wait time in between ramps. Ramps that had no channel activity during Ca^2+ application ere used for leak correction. Data were acquired at 2.9 kHz filter setting and digitally filtered at 50 Hz for display purposes. […] The last panel is an example 1 s after stop of application and removal of Ca^2+. This patch had at least 7 channels. […] Records are representative of all 5 patches recorded this way. […]
Patch-clamp experiments were performed in the tight-seal whole-cell configuration at 21-25° C. […] Capacitive currents and series resistance were determined and corrected before each voltage ramp using the automatic capacitance compensation of the EPC-9. The low-resolution temporal development of membrane currents was assessed by extracting the current amplitude at −80 and +80 mV from individual ramp current records. Where applicable, statistical errors of averaged data are given as means±S.E.M. with n determinations and statistical significance was assessed by Student's t-test. […]
The single-channel properties of TRPM5 were analyzed in cell-free excised membrane patches in the inside-out configuration of the patch-clamp technique. […]

For test [5], the target named is T1, TRPM5. Briefly: Whole-cell patch-clamp of TRPM5 currents in HEK-293 cells stably expressing TRPM5, [Ca2+]i buffered in pipette. Format: cell-based. Conditions: for Hill coefficient, inhibition of TRPM5: fit to inhibitory phase.
Excerpt: Cells grown on glass coverslips were transferred to the recording chamber and kept in a standard modified Ringer's solution of the following composition (in mM): NaCl 140, KCl 2.8, CaC12 1, MgC12 2, glucose 10, Hepes.NaOH 10, pH 7.2, with osmolarity typically ranging from 298-308 mOsm. Intracellular pipette-filling solutions contained (in MM): K-glutamate 120, NaCl 8, MgC12 1, K-BAPTA 10, HEPES.CsOH, pH 7.2 adjusted with KOH. In order to adjust free [Ca^2+]i, to the desired concentration appropriate amounts of CaC12 were added as calculated with WebMaxC v2.1 (available through Stanford University). In the case of fura-2 measurements intracellular K-BAPTA was replaced by 200 μM fura-2. Fura-2 is a calcium indicator (Handbook of Fluorescent Probes and Research Chemicals, 9th ed. Molecular Probes). Solution changes were performed by pressure ejection from a wide-tipped pipette. Thrombin (NaCl-based buffer) was purchased from Sigma.
Cells expressing TRPM5 were prepared as in Example 1. The cells were perfused with an internal solution in which the free Ca^2+ concentration was buffered to 500 nM with an appropriate mixture of BAPTA and CaC12. […] The activation kinetics of TRPM5 currents under these experimental conditions is characterized by a half-time to peak of −3 s, with the peak current itself at −10 s. The current inactivates similarly rapidly to basal levels with a half-time of —13 s.
as §3
Background: The patch-clamp technique gives a direct electrical read-out from membranes.

For test [6], the system named is HEK-293 cells. Nature of the test: fura-2 measurement of [Ca2+]i in TRPM5-expressing HEK-293 cells. In kind it is cell-based, human. The note with it: thrombin 20 U/ml, n=5.
Excerpt: as §1, §2

Sequence of TRPM4 (Q8TD43 whole entry, the tested form may be a part): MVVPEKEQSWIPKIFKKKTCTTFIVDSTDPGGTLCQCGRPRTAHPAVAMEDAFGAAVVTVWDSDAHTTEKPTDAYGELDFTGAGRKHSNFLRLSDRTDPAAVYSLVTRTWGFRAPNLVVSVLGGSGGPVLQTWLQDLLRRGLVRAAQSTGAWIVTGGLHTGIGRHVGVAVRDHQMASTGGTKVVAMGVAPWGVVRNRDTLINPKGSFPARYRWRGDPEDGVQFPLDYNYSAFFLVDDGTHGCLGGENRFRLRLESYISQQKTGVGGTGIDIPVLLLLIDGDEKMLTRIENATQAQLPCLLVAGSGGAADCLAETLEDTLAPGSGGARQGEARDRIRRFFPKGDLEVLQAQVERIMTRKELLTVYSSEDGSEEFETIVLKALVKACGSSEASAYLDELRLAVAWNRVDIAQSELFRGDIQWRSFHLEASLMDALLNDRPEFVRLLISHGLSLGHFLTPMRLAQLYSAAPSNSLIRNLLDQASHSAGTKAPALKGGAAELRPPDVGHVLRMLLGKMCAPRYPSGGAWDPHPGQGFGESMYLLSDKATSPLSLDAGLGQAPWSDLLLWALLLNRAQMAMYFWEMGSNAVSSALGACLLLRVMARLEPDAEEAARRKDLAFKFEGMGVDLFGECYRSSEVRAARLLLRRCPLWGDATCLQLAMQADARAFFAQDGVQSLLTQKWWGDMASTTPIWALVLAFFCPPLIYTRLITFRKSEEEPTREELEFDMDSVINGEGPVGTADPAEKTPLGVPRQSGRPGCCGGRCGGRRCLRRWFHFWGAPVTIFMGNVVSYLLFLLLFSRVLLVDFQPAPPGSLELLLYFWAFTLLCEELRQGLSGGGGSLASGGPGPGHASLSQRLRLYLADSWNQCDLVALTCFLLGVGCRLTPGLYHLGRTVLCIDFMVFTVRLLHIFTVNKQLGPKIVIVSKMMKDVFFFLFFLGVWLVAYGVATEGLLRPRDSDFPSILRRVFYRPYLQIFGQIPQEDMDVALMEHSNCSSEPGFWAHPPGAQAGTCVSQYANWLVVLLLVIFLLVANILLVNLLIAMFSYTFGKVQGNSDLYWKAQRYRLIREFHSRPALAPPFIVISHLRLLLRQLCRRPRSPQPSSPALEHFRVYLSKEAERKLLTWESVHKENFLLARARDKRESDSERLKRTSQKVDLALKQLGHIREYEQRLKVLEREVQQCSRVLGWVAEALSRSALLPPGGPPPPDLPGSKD

Regarding `O=C([O-])CN(CC(=O)[O-])c1ccccc1OCCOc1ccccc1N(CC(=O)[O-])CC(=O)[O-].[K+].[K+].[K+].[K+]` [BAPTA], the “effect on TRPM5 activation by thrombin” value in test [1] (10 mM BAPTA in the pipette solution, n=6, data not shown) was “consistently suppressed TRPM5 activation”.

Consider `[Ca+2]` [[Ca^2+]i], for which the EC50 in test [2] (data re-calculated by WebmaxC) was 885 nM; in test [5] (whole-cell, HEK-293 expressing TRPM5, n=5-20, read-out: EC50 for activation of TRPM5 currents (rising phase)), 850 nM. Also, the “Hill coefficient, TRPM4 currents” value in test [2] (data re-calculated by WebmaxC) is 3.6. Further, the “inhibition of TRPM4 activity at high [Ca2+]i” value in test [2] (levels up to 1.3 μM, Ref. 9 and data not shown) is on record as “without signs of inhibition”. Further, the “activation of endogenous TRPM5-like currents” value in test [3] (100 nM [Ca2+]i, n=3) is recorded as “neither 100 nM (n=3) nor 300 nM (n=3) activated any currents”; in test [3] (300 nM [Ca2+]i, n=3) it was “neither 100 nM (n=3) nor 300 nM (n=3) activated any currents”; in test [3] (500 nM [Ca2+]i, n=3), “a distinctive, transient TRPM5-like current was activated”; in test [3] (800 nM [Ca2+]i, n=8), “a distinctive, transient TRPM5-like current was activated”. Moreover, the “TRPM5 single-channel activity in inside-out patch” value in test [4] is reported as “activity of multiple channels was observed”. Besides, the “average peak amplitude of TRPM5 inward currents” value in test [5] (at −80 mV, [Ca2+]i of 1 μM, n=5) is on record as −440 pA. In addition, the “Hill coefficient, inhibition of TRPM5” value in test [5] is given as −6; in test [5] (listed as [Ca2+]i) it was 6. Further, the “Hill coefficient, activation of TRPM5” value in test [5] (fit to rising phase) came to 4. Moreover, in test [5] (whole-cell, HEK-293 expressing TRPM5, n=5-20, read-out: IC50 of the inhibitory phase of TRPM5 currents), the IC50 stood at 1100 nM.

In the case of Thrombin, the “[Ca2+]i signal on thrombin stimulation” value in test [6] is on record as “large Ca^2+-release transient”. In addition, the “TRPM5 currents at +80 and −80 mV on thrombin stimulation” value in test [1] (thrombin 20 U/ml, n=5) was “transient increase in inward and outward currents”.

In general, EC50 refers to the concentration at which the effect is half-maximal. By IC50 is commonly meant the midpoint of a concentration-inhibition curve.
